Laboratory results published in paper PMC6407917, “Identification of GSK3186899/DDD853651 as a Preclinical Development Candidate for the Treatment of Visceral Leishmaniasis” (Journal of Medicinal Chemistry, 2018).

Tests used:
Assay in all cases: biochemical
Design in all cases: species or system HEK293/K-562/placenta mixed human extract; Kinobeads chemoproteomic competition binding, quantified by TMT LC-MS/MS, dose response up to 20 uM
[1] = molecular target: WNK1 (Homo sapiens, UniProt Q9H4A3)
[2] = molecular target: PRKAG2 (Homo sapiens, UniProt Q9UGJ0)
[3] = molecular target: MAPK8 (Homo sapiens, UniProt P45983)
[4] = molecular target: ADCK1 (Homo sapiens, UniProt Q86TW2)
[5] = molecular target: CLK1 (Homo sapiens, UniProt P49759)
[6] = molecular target: PHKG2 (Homo sapiens, UniProt P15735)
[7] = molecular target: PDPK1 (Homo sapiens, UniProt O15530)
[8] = molecular target: RPS6KA6 (Homo sapiens, UniProt Q9UK32)
[9] = molecular target: NUAK1 (Homo sapiens, UniProt O60285)
[10] = molecular target: JAK1 (Homo sapiens, UniProt P23458)
[11] = molecular target: MKNK2 (Homo sapiens, UniProt Q9HBH9)
[12] = molecular target: FN3KRP (Homo sapiens, UniProt Q9HA64)
[13] = molecular target: EPHA4 (Homo sapiens, UniProt P54764)
[14] = molecular target: AKT2 (Homo sapiens, UniProt P31751)
[15] = molecular target: MAPK11 (Homo sapiens, UniProt Q15759)
[16] = molecular target: MAPK7 (Homo sapiens, UniProt Q13164)
[17] = molecular target: MET (Homo sapiens, UniProt P08581)
[18] = molecular target: HIPK2 (Homo sapiens, UniProt Q9H2X6)
[19] = molecular target: EPHA7 (Homo sapiens, UniProt Q15375)
[20] = molecular target: MAP3K2 (Homo sapiens, UniProt Q9Y2U5)
[21] = molecular target: MAP4K4 (Homo sapiens, UniProt O95819)

Measured: IC50

Sequence of NUAK1 (O60285 whole entry): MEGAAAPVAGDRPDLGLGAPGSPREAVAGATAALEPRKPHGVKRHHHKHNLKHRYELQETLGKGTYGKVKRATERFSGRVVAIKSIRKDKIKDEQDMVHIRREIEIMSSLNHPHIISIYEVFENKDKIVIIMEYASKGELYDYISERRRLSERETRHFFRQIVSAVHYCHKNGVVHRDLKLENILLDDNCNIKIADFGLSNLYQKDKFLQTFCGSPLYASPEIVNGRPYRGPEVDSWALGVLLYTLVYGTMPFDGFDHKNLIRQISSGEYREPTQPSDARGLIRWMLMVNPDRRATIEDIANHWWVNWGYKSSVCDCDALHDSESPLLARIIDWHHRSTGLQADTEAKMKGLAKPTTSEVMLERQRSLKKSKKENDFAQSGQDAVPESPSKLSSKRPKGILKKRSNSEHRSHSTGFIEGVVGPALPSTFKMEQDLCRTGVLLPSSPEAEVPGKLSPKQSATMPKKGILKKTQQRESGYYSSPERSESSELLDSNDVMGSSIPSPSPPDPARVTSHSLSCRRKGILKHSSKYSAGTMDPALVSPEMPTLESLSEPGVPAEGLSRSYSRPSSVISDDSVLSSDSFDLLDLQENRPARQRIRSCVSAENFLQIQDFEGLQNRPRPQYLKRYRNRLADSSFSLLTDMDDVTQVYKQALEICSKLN
Sequence of HIPK2 (Q9H2X6 whole entry): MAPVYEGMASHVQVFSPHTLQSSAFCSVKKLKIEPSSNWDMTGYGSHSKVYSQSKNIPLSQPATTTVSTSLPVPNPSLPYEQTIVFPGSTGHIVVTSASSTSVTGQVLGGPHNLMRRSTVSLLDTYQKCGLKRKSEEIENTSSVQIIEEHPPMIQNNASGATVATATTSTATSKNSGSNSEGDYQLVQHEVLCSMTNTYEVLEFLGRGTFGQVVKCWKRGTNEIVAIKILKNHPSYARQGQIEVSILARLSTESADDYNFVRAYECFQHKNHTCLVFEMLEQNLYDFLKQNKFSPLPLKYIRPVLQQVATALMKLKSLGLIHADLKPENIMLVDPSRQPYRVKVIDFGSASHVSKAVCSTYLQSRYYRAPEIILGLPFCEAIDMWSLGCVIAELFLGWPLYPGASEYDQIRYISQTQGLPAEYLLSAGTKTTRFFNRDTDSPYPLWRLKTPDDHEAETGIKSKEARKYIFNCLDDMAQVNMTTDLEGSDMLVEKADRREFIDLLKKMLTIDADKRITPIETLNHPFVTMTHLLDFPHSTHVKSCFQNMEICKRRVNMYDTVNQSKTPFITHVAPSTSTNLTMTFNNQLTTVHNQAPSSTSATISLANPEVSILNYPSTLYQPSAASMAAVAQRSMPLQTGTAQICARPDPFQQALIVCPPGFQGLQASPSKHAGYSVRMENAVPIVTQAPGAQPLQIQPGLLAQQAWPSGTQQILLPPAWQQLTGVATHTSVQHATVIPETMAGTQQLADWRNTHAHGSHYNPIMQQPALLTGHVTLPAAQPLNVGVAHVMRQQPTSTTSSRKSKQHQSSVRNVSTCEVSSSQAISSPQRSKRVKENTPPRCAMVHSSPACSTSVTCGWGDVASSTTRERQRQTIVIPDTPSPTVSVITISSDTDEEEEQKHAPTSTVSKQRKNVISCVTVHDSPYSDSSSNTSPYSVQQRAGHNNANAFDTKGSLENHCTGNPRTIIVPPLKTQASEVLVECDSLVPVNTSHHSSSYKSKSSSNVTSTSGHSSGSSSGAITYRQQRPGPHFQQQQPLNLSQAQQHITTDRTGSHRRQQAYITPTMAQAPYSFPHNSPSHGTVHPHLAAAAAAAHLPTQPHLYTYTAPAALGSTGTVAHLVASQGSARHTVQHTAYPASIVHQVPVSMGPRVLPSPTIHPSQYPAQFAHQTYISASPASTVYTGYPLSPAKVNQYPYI
Sequence of PRKAG2 (Q9UGJ0 whole entry): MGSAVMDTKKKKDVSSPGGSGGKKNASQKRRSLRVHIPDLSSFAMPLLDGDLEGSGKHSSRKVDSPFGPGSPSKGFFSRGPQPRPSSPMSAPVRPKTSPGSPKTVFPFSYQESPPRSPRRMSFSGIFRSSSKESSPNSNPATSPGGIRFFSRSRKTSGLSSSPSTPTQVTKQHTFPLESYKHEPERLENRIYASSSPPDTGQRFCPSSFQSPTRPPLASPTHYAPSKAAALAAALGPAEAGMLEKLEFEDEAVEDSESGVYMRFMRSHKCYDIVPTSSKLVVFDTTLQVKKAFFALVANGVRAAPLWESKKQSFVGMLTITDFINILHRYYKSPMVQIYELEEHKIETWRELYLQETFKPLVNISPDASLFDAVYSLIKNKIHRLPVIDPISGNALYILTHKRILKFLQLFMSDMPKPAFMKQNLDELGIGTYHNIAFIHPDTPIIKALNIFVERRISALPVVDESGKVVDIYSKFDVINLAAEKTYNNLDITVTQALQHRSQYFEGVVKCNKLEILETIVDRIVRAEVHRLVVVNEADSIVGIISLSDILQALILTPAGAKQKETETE
Sequence of ADCK1 (Q86TW2 whole entry): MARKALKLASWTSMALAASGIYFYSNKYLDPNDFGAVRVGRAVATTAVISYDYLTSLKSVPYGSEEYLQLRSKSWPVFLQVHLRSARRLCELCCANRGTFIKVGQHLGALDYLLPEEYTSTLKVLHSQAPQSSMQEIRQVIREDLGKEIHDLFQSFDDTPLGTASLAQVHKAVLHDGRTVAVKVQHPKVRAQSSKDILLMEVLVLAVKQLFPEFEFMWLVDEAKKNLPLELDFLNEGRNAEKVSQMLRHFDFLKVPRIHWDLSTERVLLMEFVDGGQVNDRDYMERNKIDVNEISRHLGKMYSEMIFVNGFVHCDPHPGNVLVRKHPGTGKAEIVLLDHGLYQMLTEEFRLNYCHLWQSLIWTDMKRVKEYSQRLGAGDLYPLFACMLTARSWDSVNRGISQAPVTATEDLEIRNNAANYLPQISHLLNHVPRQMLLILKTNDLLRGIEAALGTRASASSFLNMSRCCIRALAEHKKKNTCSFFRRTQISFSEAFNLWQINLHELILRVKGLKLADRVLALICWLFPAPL
Sequence of RPS6KA6 (Q9UK32 whole entry): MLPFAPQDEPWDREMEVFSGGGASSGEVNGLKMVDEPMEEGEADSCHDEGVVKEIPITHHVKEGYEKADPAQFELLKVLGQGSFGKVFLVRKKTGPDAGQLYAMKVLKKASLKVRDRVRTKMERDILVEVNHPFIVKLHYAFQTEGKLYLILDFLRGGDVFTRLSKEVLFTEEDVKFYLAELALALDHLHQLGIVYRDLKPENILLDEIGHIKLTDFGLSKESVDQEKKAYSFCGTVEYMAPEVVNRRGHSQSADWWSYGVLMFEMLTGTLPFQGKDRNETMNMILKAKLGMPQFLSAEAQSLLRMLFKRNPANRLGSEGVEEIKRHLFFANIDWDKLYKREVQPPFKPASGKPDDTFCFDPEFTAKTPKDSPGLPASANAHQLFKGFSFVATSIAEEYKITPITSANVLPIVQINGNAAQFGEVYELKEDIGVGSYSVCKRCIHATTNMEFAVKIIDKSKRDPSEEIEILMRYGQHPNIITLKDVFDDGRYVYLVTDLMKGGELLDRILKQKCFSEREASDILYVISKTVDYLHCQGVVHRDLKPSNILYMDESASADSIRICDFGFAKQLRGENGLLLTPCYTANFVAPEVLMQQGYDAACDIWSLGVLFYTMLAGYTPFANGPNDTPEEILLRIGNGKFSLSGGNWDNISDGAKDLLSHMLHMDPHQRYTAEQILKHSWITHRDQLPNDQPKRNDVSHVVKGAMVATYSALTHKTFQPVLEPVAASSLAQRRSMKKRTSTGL
Sequence of MAPK11 (Q15759 whole entry): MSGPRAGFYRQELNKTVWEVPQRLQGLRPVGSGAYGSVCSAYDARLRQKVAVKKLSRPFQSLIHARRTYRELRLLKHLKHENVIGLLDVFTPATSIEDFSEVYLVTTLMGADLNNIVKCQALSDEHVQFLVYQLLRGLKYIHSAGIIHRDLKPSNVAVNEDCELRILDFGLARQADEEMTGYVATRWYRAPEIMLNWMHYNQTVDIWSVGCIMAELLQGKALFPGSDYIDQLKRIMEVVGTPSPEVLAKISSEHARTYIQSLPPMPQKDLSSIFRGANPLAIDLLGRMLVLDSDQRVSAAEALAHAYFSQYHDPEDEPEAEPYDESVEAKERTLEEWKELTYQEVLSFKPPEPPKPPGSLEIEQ
Sequence of PDPK1 (O15530 whole entry): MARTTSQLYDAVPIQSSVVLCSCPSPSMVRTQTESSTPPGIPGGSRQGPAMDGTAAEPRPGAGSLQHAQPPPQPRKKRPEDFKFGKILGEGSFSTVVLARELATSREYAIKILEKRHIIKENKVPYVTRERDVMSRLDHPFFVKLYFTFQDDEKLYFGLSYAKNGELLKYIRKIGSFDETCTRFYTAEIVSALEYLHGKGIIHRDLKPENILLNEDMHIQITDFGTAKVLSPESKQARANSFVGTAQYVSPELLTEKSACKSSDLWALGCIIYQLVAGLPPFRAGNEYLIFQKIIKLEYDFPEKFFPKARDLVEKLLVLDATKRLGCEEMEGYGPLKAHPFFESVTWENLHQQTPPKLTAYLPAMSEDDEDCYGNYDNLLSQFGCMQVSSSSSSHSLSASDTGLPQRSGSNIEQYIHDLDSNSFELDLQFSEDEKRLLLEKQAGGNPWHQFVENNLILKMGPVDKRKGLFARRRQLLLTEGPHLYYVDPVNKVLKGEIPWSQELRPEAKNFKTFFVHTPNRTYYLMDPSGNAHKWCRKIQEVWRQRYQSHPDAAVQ
Sequence of FN3KRP (Q9HA64 whole entry): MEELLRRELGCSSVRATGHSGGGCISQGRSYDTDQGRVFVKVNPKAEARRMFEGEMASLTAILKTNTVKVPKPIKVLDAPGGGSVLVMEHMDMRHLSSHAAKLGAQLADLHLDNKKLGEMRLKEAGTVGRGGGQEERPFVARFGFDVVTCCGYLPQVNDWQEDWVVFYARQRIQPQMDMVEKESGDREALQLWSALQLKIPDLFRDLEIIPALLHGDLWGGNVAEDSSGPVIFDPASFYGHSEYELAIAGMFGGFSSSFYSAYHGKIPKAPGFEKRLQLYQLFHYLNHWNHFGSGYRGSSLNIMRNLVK

COc1ccccc1-c1n[nH]c2nc(N[C@H]3CC[C@H](NS(=O)(=O)CCC(F)(F)F)CC3)nc(OC)c12 [compound 31, 3,3,3-Trifluoro-N-(trans-4-((4-methoxy-3-(2-methoxyphenyl)-1H-pyrazolo[3,4-d]pyrimidin-6-yl)amino)cyclohexyl)propane-1-sulfonamide]
≥ 20 µM: all assays above
